Data: patent publication US8835445B2, “Dihydrofolate reductase inhibitors” (Trius Therapeutics, Inc., priority 2010, dated 2014)
Values after ≈ are worked out from the molar mass of the structure shown. Read-outs that look alike come from different tables or passages of the source.

What was measured:
human DHFR = human DHFR (Homo sapiens (Human), UniProt P00374); assay: DHFR enzymatic inhibition (Ki), human DHFR; type: biochemical
S. aurues DHFR = S. aurues DHFR (Staphylococcus aureus, UniProt P0A017); assay: biochemical; type: biochemical; settings: S. aureus DHFR
S. aureus = assay: Antibacterial activity (MIC), whole-cell bacterial growth inhibition; type: cell-based, Staphylococcus aureus; settings: for MIC: Staphylococcus aureus
From the text: Antibacterial activity as measured by the minimal inhibitory concentrations (MIC) and minimal bactericidal concentrations of compounds are well known (see., e.g., National Committee for Clinical Laboratory Standards 2000 Performance standards for antimicrobial disk susceptibility tests: approved standard, 7th ed. M2-A7, vol. 20, no. 1, Committee for Clinical Laboratory Standards, Wayne, Pa.) In vitro testing for antibacterial activity may be accomplished through use of a whole-cell bacterial growth inhibition assay. For example, an […] assay identifies a substance that inhibits bacterial growth. Microtiter plates are prepared with serial dilutions of the test compound, adding to the preparation a given amount of growth substrate, and providing a preparation of bacteria. Inhibition of bacterial growth is determined, for example, by observing changes in optical densities of the bacterial cultures. Inhibition of bacterial growth is determined, for example, by comparing (in the presence and absence of a test compound) the rate of growth or the absolute growth of bacterial cells. Inhibition includes a reduction of one of the above measurements by at least 20%.

[1] = S. aureus in 20% serum, read-out: MIC in μg/ml S. aureus in 20% serum
[2] = S. aureus, read-out: MIC in μg/ml S. aureus

Chain of human DHFR (P00374 whole entry): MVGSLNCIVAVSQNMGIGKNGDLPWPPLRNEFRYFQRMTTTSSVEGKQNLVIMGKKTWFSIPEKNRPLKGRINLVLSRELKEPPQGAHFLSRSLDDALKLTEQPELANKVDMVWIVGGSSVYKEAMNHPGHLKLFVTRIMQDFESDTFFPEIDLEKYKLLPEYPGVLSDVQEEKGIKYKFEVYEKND

| SMILES | Ki (human DHFR) | Ki (S. aurues DHFR) | MIC (S. aureus; [1]) | MIC (S. aureus; [2]) | MIC in μg/ml S. aureus (S. aureus; S. aureus) | MIC in μg/ml S. aureus in 20% serum (S. aureus; S. aureus in 20% serum) |
| --- | --- | --- | --- | --- | --- | --- |
| Cc1cc2nc(-c3ccccn3)n(-c3ccc4c(N)nc(N)nc4c3)c2cc1C [Compound 16, 7-(5,6-dimethyl-2-(pyridin-2-yl)-1H-benzo[d]-imidazol-1-yl)quinazoline-2,4-diamine] | 572 nM | 0.022 nM | 0.25 µg/mL (≈ 0.655 µM) | ≤ 0.125 µg/mL |  |  |
| Cc1cc2nc(-c3nccs3)n(-c3cc4nc(N)nc(N)c4cc3Cl)c2cc1C [Compound 34, 6-chloro-7-(5,6-dimethyl-2-(thiazol-2-yl)-1H-benzo[d]imidazol-1-yl)quinazoline-2,4-diamine] | 8.8 nM | 0.016 nM |  |  | ≦0.125 μg/ml | 2 µg/mL (≈ 4.74 µM) |
| COc1cnc(Cl)cc1-c1cc2nc(N)nc(N)c2cc1C [Compound 38, 7-(2-chloro-5-methyloxypyridin-4-yl)-6-methylquinazoline-2,4-diamine] | 52.4 nM | 1.4 nM | 1 µg/mL (≈ 3.17 µM) | 1 µg/mL (≈ 3.17 µM) |  |  |
| Nc1ccc(-c2ccc3c(N)nc(N)nc3c2)cc1 [Compound 4, 7-(4-aminophenyl)quinazoline-2,4-diamine] | 702 nM | 2.7 nM | 2 µg/mL (≈ 7.96 µM) | 4 µg/mL (≈ 15.9 µM) |  |  |
| COc1cc2nc(-c3nccs3)n(-c3cc4nc(N)nc(N)c4cc3Cl)c2cc1OC [Compound 23, 6-chloro-7-(5,6-dimethoxy-2-(thiazol-2-yl)-1H-benzo[d]imidazol-1-yl)quinazo-line-2,4-diamine] | 320 nM | 0.011 nM | 0.5 µg/mL (≈ 1.1 µM) | ≤ 0.125 µg/mL |  |  |
| Cc1cc2c(N)nc(N)nc2cc1-c1cccc2[nH]ccc12 [Compound 9, 7-(1H-indol-4-yl)-6-methylquinazoline-2,4-diamine] | 245 nM | 0.61 nM | 1 µg/mL (≈ 3.46 µM) | 0.25 µg/mL (≈ 0.864 µM) |  |  |
| Cc1ccc2c(c1)nc(-c1cccs1)n2-c1ccc2c(N)nc(N)nc2c1 [Compound 36] | 314 nM | 0.005 nM | 1 µg/mL (≈ 2.68 µM) | 1 µg/mL (≈ 2.68 µM) |  |  |
